Experimental data reported in US20110245334A1, “USE OF RACEMATES OF PINOCEMBRIN IN PREPARING MEDICAMENTS FOR TREATING STROKE” (CSPC Zhonggi Pharmaceutical Technology (Shijiazhuang) Co. …, priority 2008, published 2011).

What was measured:
Type in all cases: in vivo, rat
[1] = system: plasma fibrinogen; assay: Plasma fibrinogen assay (ELISA) in SHRSP; design: Plasma fibrinogen: unit not given here; conditions: SHRSP rats, 3 mg/kg
Method: The mixture was centrifuged for 15 min at 3000 rpm and plasma fibrinogen in liquid supernatant was determined by euzymelinked immunosorbent assay (ELISA).

[2] = system: tMCAO rats; assay: Infarct volume (TTC), tMCAO time window study; conditions: 2 hours ischemia and 24 hours reperfusion, 1 mg/kg, 3 h
Method: 1. In the test, transient middle cerebral artery occlusion (tMCAO) model of rats was adopted. The reperfusion was performed after focal cerebral ischemia for 2 hours so as to inspect therapeutic time window of pinocembrin after focal cerebral ischemia. The rats were administered by pinocembrin racemate (1 mg/kg, 5 mg/kg, intravenous injection) after reperfusion 1 hour, 4 hours and 6 hours (i.e., ischemia 3 hour, 6 hours and 8 hours). (R)-pinocembrin and (S)-pinocembrin (1 mg/kg, 5 mg/kg, intravenous injection) were administered after reperfusion 1 hour and 4 hours (i.e., ischemia 3 hour and 6 hours). The therapeutic time windows of these drugs in focal cerebral ischemia were assessed by studying their effects to neurological symptom scores, infarct sizes and brain water contents during 24 hours after tMCAO.
2.4 Experimental Grouping and Administration • Sham operation group (intravenous injection of normal saline after 3 hours of ischemia); • Model group (intravenous injection of 50 mg/kg hydroxypropyl β-cyclodextrin after 3 hours of ischemia); • Nimodipine group (1 mg/kg, administered after 3 hours of ischemia); • Pinocembrin racemate group (1 mg/kg, 5 mg/kg, administered after 3, 6 and 8 hours of ischemia); • (R)-pinocembrin group (1 mg/kg, 5 mg/kg, administered after 3 and 6 hours of ischemia); • (S)-pinocembrin group (1 mg/kg, 5 mg/kg, administered after 3 and 6 hours of ischemia).
First administration was performed by intravenous injection, and intraperitoneal injection was carried out once 12 hours later with a dose 1.5 times of that for intravenous injection.
After neurobehavioral scoring, the rats were put to death by decollation and their brain tissues were taken out quickly and put into a refrigerator of −20° C. 10 min later, the brain tissues were moved to an environment of room temperature. After the olfactory bulb, cerebellar and lower brain stem were resected, the brain tissue was cut into six continuous coronal slices with an interval of 2 mm. Then the brain slices were quickly put into 5 ml solution containing 2% TTC and incubated at a constant temperature of 37° C. and in a condition of darkness for 30 min. During the time, the brain slices were tipped every 5 min. […] Every group of brain slices were put in order and photographed. The photographs were processed by an image analysis system and the infarct areas in each slice were calculated. The infarct volume of each slice was calculated via multiplying the infarct area by thickness of slice (2 mm), and the infarct volume was the sum of infarct volumes of all slices. The infarct volume percentage was expressed as: sick-side infarct volume/total sick-side brain volume.

[3] = system: MCAO rats; assay: Regional cerebral blood flow (LDF), MCAO; conditions: 3 mg/kg
Description: The rats were fixed pronely on the stereotaxic apparatus and subjected to craniotomy. After cleaning for operation visual field, bregma was used as an origin, and a site situated 2 mm behind and 3 mm right to the bregma was selected as a measuring point. The region […] around the site was thinned by a dental drill. In the process, the integrity of dura was maintained and large vessels were avoided. Probe holder was located and fixed.
The rats were supinely fixed on the operating table to carry out MCAO surgery. When a nylon line was inserted in ICA, it was not inserted into intracranial part until LDF value was stable, and blood flow value in 10 min was recorded, and an average value thereof is used as a baseline value of cerebral blood flow. After the MCAO surgery completed, the nylon line was inserted into the intracranial part. When the blood flow value suddenly declined to 20-30% of the baseline value, it was noted that the blood flow in MCA had been blocked. The blood flow value before MCAO in every group was used as a baseline value (100%) of the group. […] LDF value was determined at the same site before the animals was put to death.

[4] = system: plasma ET-1; assay: Plasma ET-1 (radioimmunoassay) in SHRSP; design: ET-1 content: unit not given here; conditions: plasma, SHRSP rats, 3 mg/kg
Method: 5) Blood of 2 mL was dropped rapidly in a cuvette with 30 μL 7.5% EDTA-2Na and 40 μL aprotinin and mixed. After centrifuged for 5 min at 3000 rpm, plasma ET-1 in liquid supernatant was determined by isotope radioimmunoassay.

For `COCCOC(=O)C1=C(C)NC(C)=C(C(=O)OC(C)C)C1c1cccc([N+](=O)[O-])c1` (stereo not shown) [Nimodipine, reference compound], the Plasma fibrinogen [1] was 2.67 ± 0.13, the “Infarct percentage (%)” value [2] was 31.30 ± 10.31% and the “regional cerebral blood flow (rCBF)” value ([3]; time point 10 min) was 99.91 ± 7.27 % of baseline value. For the same molecule, the “regional cerebral blood flow (rCBF)” value ([3]; time point 20 min) was 32.98 ± 8.09 % of baseline value, the “regional cerebral blood flow (rCBF)” value ([3]; time point 30 min) was 55.58 ± 6.09 % of baseline value and the “regional cerebral blood flow (rCBF)” value ([3]; time point 30 min, listed as nimodipine) was 55.58±6.09 % of baseline value. For the same molecule, the “regional cerebral blood flow (rCBF)” value ([3]; time point 40 min) was 67.96 ± 7.81 % of baseline value, the “regional cerebral blood flow (rCBF)” value ([3]; time point 50 min) was 66.59 ± 9.08 % of baseline value and the “regional cerebral blood flow (rCBF)” value ([3]; time point 60 min) was 64.09 ± 8.03 % of baseline value. The “regional cerebral blood flow (rCBF)” value ([3]; time point 70 min) was 65.72 ± 8.58 % of baseline value, the “regional cerebral blood flow (rCBF)” value ([3]; time point 80 min) was 64.98 ± 6.25 % of baseline value and the “regional cerebral blood flow (rCBF)” value ([3]; time point 90 min) was 63.99 ± 6.09 % of baseline value. The “regional cerebral blood flow (rCBF)” value ([3]; time point 100 min) was 67.01 ± 5.67 % of baseline value, the “regional cerebral blood flow (rCBF)” value ([3]; time point 110 min) was 63.07 ± 6.1 % of baseline value and the “regional cerebral blood flow (rCBF)” value ([3]; time point 120 min) was 61.85 ± 7.14 % of baseline value. The “regional cerebral blood flow (rCBF)” value ([3]; time point 130 min) was 67.12 ± 8.09 % of baseline value, the “regional cerebral blood flow (rCBF)” value ([3]; time point 140 min) was 65.89 ± 6.81 % of baseline value and the “regional cerebral blood flow (rCBF)” value ([3]; time point 150 min) was 61.8 ± 8.08 % of baseline value. For the same molecule, the “regional cerebral blood flow (rCBF)” value ([3]; time point 160 min) was 63.47 ± 9.03 % of baseline value, the “regional cerebral blood flow (rCBF)” value ([3]; time point 170 min) was 65.9 ± 7.58 % of baseline value and the “regional cerebral blood flow (rCBF)” value ([3]; time point 180 min) was 66.08 ± 6.89 % of baseline value. For the same molecule, the ET-1 content [4] was 174.8 ± 20.8.
